According to patent US5959123A, “3,4-Disubstituted azetidin-2-one derivatives useful as cysteine proteinase regulators” (Synphar Laboratories, Inc., priority 1997, dated 1999):

Key:
cathepsin L = cathepsin L (Rattus norvegicus, UniProt P07154); assay: In vitro assay for cathepsin L inhibition; type: biochemical; conditions: r rat cathepsin L; pH 5.0; 10 min incubation at room temperature; substrate N-CBZ-Phe-Arg-AMC (1 mM, 20 μl)
Procedure: To a 170 μl of enzyme-buffer mixture (enzyme: r rat cathepsin L, diluted to give approximate 15 F units/min, buffer: 58.8 mM sodium citrate, 1.18 mM EDTA, 235 mM sodium chloride, 5 mM DTT, pH 5.0) a 10 μL of inhibitor (dissolved in DMSO) was added. After 10 min of incubation at room temperature, a 20 μl of 1 mM substrate (N-CBZ-Phe-Arg-AMC, dissolved in DMSO) was added to initiate reaction. Reading is followed up for 10 min at the fluoroscan reader (excitation at 380 nm emission at 460 nm).
(§1) A plot of percentage of inhibition vs inhibitor concentration is obtained, and IC50 is determined using a linear regression calculation (concentration of inhibitor which will give 50% inhibition).

cathepsin B = cathepsin B (Rattus norvegicus, UniProt P00787); assay: In vitro assay for cathepsin B inhibition; type: biochemical; conditions: r rat cathepsin B; pH 5.1; 10 min incubation at room temperature; substrate N-CBZ-Phe-Arg-AMC (5 mM, 20 μl)
cathepsin B, sequence (P00787 80-333 limits assumed): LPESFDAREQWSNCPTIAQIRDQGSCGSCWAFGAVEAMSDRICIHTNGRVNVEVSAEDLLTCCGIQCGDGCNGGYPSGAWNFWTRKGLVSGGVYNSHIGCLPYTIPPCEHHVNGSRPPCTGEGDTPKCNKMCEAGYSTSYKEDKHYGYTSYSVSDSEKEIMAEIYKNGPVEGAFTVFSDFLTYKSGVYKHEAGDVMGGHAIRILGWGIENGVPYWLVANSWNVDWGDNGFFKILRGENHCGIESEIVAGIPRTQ
Procedure: The compounds of formula I were tested for inhibition of cathepsin B using the known method (A. J. Barret et al., Biochem. J. 1982, 201, 189-198). To a 170 μl of enzyme-buffer mixture (enzyme: r rat cathepsin B, diluted to give approximate 10 F units/min, buffer: 56 mM sodium acetate, 1.124 mM EDTA, 10 mM DTT, pH 5.1) a 10 μL of inhibitor (dissolved in DMSO) was added. After 10 min of incubation at room temperature, a 20 μl of 5 mM substrate (N-CBZ-Phe-Arg-AMC, dissolved in DMSO) was added to initiate reaction. Reading is followed up for 10 min at the fluoroscan reader (excitation at 380 nm emission at 460 nm).
as §1

cathepsin L, sequence (P07154 114-334): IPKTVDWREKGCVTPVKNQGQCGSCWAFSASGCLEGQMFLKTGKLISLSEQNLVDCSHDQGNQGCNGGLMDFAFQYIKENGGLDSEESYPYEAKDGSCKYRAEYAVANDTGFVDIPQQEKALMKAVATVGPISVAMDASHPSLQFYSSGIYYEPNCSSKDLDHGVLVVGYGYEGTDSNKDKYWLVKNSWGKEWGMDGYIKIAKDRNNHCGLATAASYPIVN

IC50 (cathepsin L) [nM] | IC50 (cathepsin B) [nM] | SMILES
> 50000 | > 50000 | CC(C)(C)[C@H](NC(=O)CCc1ccccc1)C(=O)N[C@@H]1C(=O)N[C@H]1Oc1ccccc1 [Example 29, (3S, 4S)-3-[2S-2-(3-phenylpropionoyl)amino-2-t-butyl-acetamido]-4-phenoxy-azetidin-2-one]
400 | 10100 | O=C(CCc1ccccc1)NC(Cc1ccc2ccccc2c1)C(=O)NC1C(=O)NC1SCCO [Example 17, (3S,4SR)-3-{N-(3-phenylpropionoyl)-β-(2-naphthyl)-L-alanyl}-amino-4-(2-hydroxyethylthio)-azetidin-2-one]
80 | 9700 | O=C(CCc1ccccc1)N[C@@H](Cc1ccc2c(c1)OCCO2)C(=O)N[C@@H]1C(=O)N[C@H]1Oc1ccccc1 [Example 31]
10700 | > 50000 | CC(OC(C)(C)C)[C@H](NC(=O)OCc1ccccc1)C(=O)N[C@@H]1C(=O)N[C@@H]1Oc1ccccc1 (stereo partly drawn) [Example 26, (3S, 4R)-3-[2S-2-benzyloxycarbonylamino-2-(1-t-butyloxyethyl)-acetamido]-4-phenoxy-azetidin-2-one]
0.11 | 71.5 | O=C(N[C@@H](Cc1ccc2ccccc2c1)C(=O)N[C@@H]1C(=O)N[C@@H]1Oc1ccc2ccccc2c1)OCc1ccccc1 [Example 13B, (3S,4R)-3-{N-benzyloxycarbonyl-β-(2-naphthyl)-L-alanyl}-amino-4-(2-naphthoxy)-azetidin-2-one]
15 | 900 | O=C(N[C@@H](Cc1ccc2ccccc2c1)C(=O)N[C@@H]1C(=O)N[C@H]1Oc1ccccc1)OCc1ccccc1 [Example 11, (3S,4S)-3-{N-benzyloxycarbonyl-β-(2-naphthyl)-L-alanyl}-amino-4-phenoxy-azetidin-2-one]
0.4 | 80 | Cc1cccc(O[C@H]2NC(=O)[C@H]2NC(=O)[C@H](Cc2ccc3ccccc3c2)NC(=O)OCc2ccccc2)c1 [Example 12B, (3S,4R)-3-{N-benzyloxycarbonyl-β-(2-naphthyl)-L-alanyl}-amino-4-(3-methylphenoxy)-azetidin-2-one]
76.7 | 1920 | O=C(CCc1ccccc1)N[C@@H](Cc1ccc2ccccc2c1)C(=O)N[C@@H]1C(=O)NC1OCc1ccccc1 (stereo partly drawn) [Example 18, (3S,4SR)-3{N-(3-phenylpropionoyl)-β-(2-naphthyl)-L-alanyl}-amino-4-benzyloxy-azetidin-2-one]
2.7 | 1700 | O=C(N[C@@H](Cc1ccc2ccccc2c1)C(=O)N[C@@H]1C(=O)N[C@H]1Oc1cccc(N2CCOCC2)c1)OCc1ccccc1 [Example 14A, (3S,4S)-3-{N-benzyloxycarbonyl-β-(2-naphthyl)-L-alanyl}amino-4-{3-(morpholin-4-yl)-phenoxy}-azetidin-2-one]
0.5 | 340 | O=C(N[C@@H](Cc1ccc2ccccc2c1)C(=O)N[C@@H]1C(=O)N[C@@H]1Oc1cccc(N2CCOCC2)c1)OCc1ccccc1 [Example 14B, (3S,4R)-3-{N-benzyloxycarbonyl-β-(2-naphthyl)-L-alanyl}-amino-4-{3-(morpholin-4-yl)-phenoxy}-azetidin-2-one]
2.9 | 1800 | O=C(N[C@@H](Cc1ccc2ccccc2c1)C(=O)N[C@@H]1C(=O)N[C@H]1Oc1ccc2ccccc2c1)OCc1ccccc1 [Example 13A, (3S,4S)-3-{N-benzyloxycarbonyl-β-(2-naphthyl)-L-alanyl}amino-4-(2-naphthoxy)-azetidin-2-one]
2300 | 23000 | CC(C)(C)C[C@H](NC(=O)OCc1ccccc1)C(=O)N[C@@H]1C(=O)N[C@H]1Oc1ccccc1 [Example 27, (3S, 4S)-3-(2S-2-benzyloxycarbonylamino-2-t-butylmethyl-acetamido)-4-phenoxy-azetidin-2-one]

The next lines start with the compound.

SMILES | IC50 (cathepsin L) [nM] | IC50 (cathepsin B) [nM]
CC(=O)O[C@@H]1NC(=O)[C@H]1NC(=O)C(NC(=O)OCc1ccccc1)c1ccccc1 (mixture of isomers) [Example 3, (3S,4S)-3-(N-benzyloxycarbonyl-DL-phenylglycyl)-amino-4-acetoxy-azetidin-2-one] | 43100 | > 50000
CC(=O)O[C@@H]1NC(=O)[C@H]1NC(=O)[C@H](Cc1cccc(F)c1)NC(=O)OCc1ccccc1 [Example 9, (3S,4S)-3-{N-benzyloxycarbonyl-β-(3-fluorophenyl)-L-alanyl}-amino-4-acetoxy-azetidin-2-one] | 341 | 18800
CC(=O)O[C@@H]1NC(=O)[C@H]1NC(=O)[C@H](Cc1ccc2ccccc2c1)NS(=O)(=O)/C=C/c1ccccc1 [Example 20, (3S,4S)-3-{N-(trans-2-phenyl-eth-1-enesulfonyl)-β-(2-naphthyl)-L-alanyl}-amino-4-acetoxy-azetidin-2-one] | 79 | 395
COc1ccc(C[C@H](NC(=O)CCc2ccccc2)C(=O)N[C@@H]2C(=O)N[C@H]2Oc2ccccc2)cc1OC [Example 30, (3S, 4s)-3-[2S-2-(3-phenylpropionoyl)amino-2-(3,4-dimethoxyphenyl)methyl-acetamido]-4-phenoxy-azetidin-2-one] | 1600 | 48000
CC(=O)O[C@@H]1NC(=O)[C@H]1NC(=O)[C@H](CCCN=C(N)N[N+](=O)[O-])NC(=O)CCc1ccccc1 [Example 24, (3S,4S)-3-{N^α -(3-phenylpropionyl)-N-nitro-L-arginyl}-amino-4-acetoxy-azetidin-2-one] | 16.8 | 31400
CC(=O)O[C@@H]1NC(=O)[C@H]1NC(=O)[C@H](CCc1ccccc1)NC(=O)OCc1ccccc1 [Example 4, (3S,4S)-3-(N-benzyloxycarbonyl-L-homophenylalanyl)-amino-4-acetoxy-azetidin-2-one] | 11400 | > 50000
CC(=O)O[C@@H]1NC(=O)[C@H]1NC(=O)[C@H](Cc1ccc2ccccc2c1)NC(=O)OCc1ccccc1 [Example 8, (3S,4S)-3-(N-benzyloxycarbonyl-β-(2-naphthyl)-L-alanyl)-amino-4-acetoxy-azetidin-2-one] | 13.5 | 16400
COc1ccc(C[C@H](NC(=O)OCc2ccccc2)C(=O)N[C@@H]2C(=O)N[C@H]2OC(C)=O)cc1 [Example 10, (3S,4S)-3-{N-benzyloxycarbonyl-β-(4-methoxyphenyl)-L-alanyl}-amino-4-acetoxy-azetidin-2-one] | 57 | 7510
CC(=O)O[C@@H]1NC(=O)[C@H]1NC(=O)[C@H](Cc1ccc2ccccc2c1)NC(=O)NCc1ccccc1 [Example 21, (3S,4S)-3-{N-(benzylaminocarbonyl)-β-(2-naphthyl)-L-alanyl}-amino-4-acetoxy-azetidin-2-one] | 10 | 2200
CC(=O)O[C@@H]1NC(=O)[C@H]1NC(=O)[C@H](Cc1ccccn1)NC(=O)OCc1ccccc1 [Example 6, (3S,4S)-3-(N-benzyloxycarbonyl-β-(2-pyridyl)-L-alanyl)-amino-4-acetoxy-azetidin-2-one] | 12100 | > 50000
CC(=O)O[C@@H]1NC(=O)[C@H]1NC(=O)C1Cc2ccccc2N1C(=O)OCc1ccccc1 (stereo partly drawn) [Example 1, (3S,4S)-3-(1 -N-benzyloxycarbonyl-2-indolinecarbonyl)-amino-4-acetoxy-azetidin-2-one] | 26700 | > 50000
